Among the data in ChEMBL document CHEMBL1151292, “Antineoplastic activity and cytotoxicity of flavones, isoflavones, and flavanones” (1979) are Activity and EC50 values, retold here.

Values after ≈ are worked out from the molar mass of the structure shown. Active and inactive are the calls of the source. A value given as a limit tells only on which side of the number the result lay.

The test system of test [1] is Lewis lung carcinoma cell line. Nature of the test: In vivo antitumor activity against mouse LLC cells. The class given is functional, organism-based.
The subject of test [2] is CCRF S-180. As to the kind of experiment: In vivo antitumor activity against mouse S180 cells. The format is functional, organism-based.
For test [3], the system named is L1210. As to the kind of experiment: In vivo antitumor activity against mouse L1210 cells. The format is functional, organism-based.
Test [4] relates to KB. As to the kind of experiment: Cytotoxicity against human KB cells. The format is functional. The settings on record: read-out: ED50 (the source's name).
Test [5] deals with CA-755. Nature of the test: In vivo antitumor activity against mouse CA-755 cells. The class given is functional, organism-based.

In the case of `O=c1cc(-c2ccc(F)cc2)oc2ccccc12`, the result in test [1], in test [2] and in test [3] was inactive.
On to `COc1ccc(-c2cc(=O)c3c(OC)c(OC)c(OC)c(OC)c3o2)c(OC)c1`, for which the outcome in test [1] and in test [2] was inactive. Besides, the EC50 in test [4] was found to be 15 µg/mL (≈ 37.3 µM).
As for `Cl.NC1C(=O)c2ccccc2OC1c1ccccc1` (stereo not drawn), the result in test [2], in test [5] and in test [3] was inactive. Further, the EC50 in test [4] stood at 3 µg/mL.
As for `O=c1c(-c2ccc(O)cc2)coc2cc(O)cc(O)c12` [GENISTEIN], the outcome in test [2], in test [5] and in test [3] was inactive. The EC50 in test [4] came to 6.7 µg/mL (≈ 24.8 µM).
For `COc1ccccc1-c1cc(=O)c2ccc(OC)c(OC)c2o1`, the outcome in test [1], in test [2], in test [5] and in test [3] was inactive. Moreover, in test [4], the EC50 is 4 µg/mL (≈ 12.8 µM).
With `COc1cc(O)c2c(=O)c(OC)c(-c3ccc(OC)c(OC)c3)oc2c1` [RETUSIN], the result in test [2], in test [5] and in test [3] was inactive. In addition, the EC50 in test [4] worked out at 41 µg/mL (≈ 114 µM).
For the compound `O=c1cc(-c2ccccc2F)oc2ccccc12`, the outcome in test [1], in test [2] and in test [3] was inactive.
Turning to `COc1ccc(-c2oc3ccc(C)cc3c(=O)c2O)cc1`, the result in test [1], in test [2], in test [5] and in test [3] was inactive. Also, in test [4], the EC50 is 2 µg/mL (≈ 7.08 µM).
For `COc1ccc(-c2cc(=O)c3c(OC)c(OC)c(OC)cc3o2)cc1`, the outcome in test [2], in test [5] and in test [3] was inactive. Also, the EC50 in test [4] was determined as 27 µg/mL (≈ 78.9 µM).
As to `COc1cc(O)c2c(=O)c(O[C@@H]3O[C@H](CO[C@@H]4O[C@@H](C)[C@H](O)[C@@H](O[C@@H]5O[C@@H](C)[C@H](O)[C@@H](O)[C@H]5O)[C@H]4O)[C@@H](O)[C@H](O)[C@H]3O)c(-c3ccc(O)c(O)c3)oc2c1`, the result in test [1], in test [2], in test [5] and in test [3] was inactive. Also, in test [4], the EC50 worked out at 8.5 µg/mL (≈ 11 µM).
On to `COc1ccc2c(c1)C(=O)CC(c1ccccc1OC)O2` (stereo not drawn), for which the outcome in test [2], in test [5] and in test [3] was inactive. In test [4], the EC50 was determined as 24 µg/mL (≈ 84.4 µM).
Take `COc1c(OC)c(OC)c2c(c1OC)OC(c1ccc(O)cc1)CC2=O` (stereo not drawn): the result in test [2], in test [5] and in test [3] was inactive. For the same compound, in test [4], the EC50 amounted to 26 µg/mL (≈ 72.1 µM).
Turning to `CC(=O)Oc1cc(O)c2c(=O)c(OC(C)=O)c(-c3ccc(OC(C)=O)c(OC(C)=O)c3)oc2c1`, the outcome in test [2], in test [5] and in test [3] was inactive. Besides, the EC50 in test [4] is 22 µg/mL (≈ 46.8 µM).
`CCOC(=O)c1oc2cc(O)cc(O)c2c(=O)c1-c1ccc(OC)cc1`: in test [1], the result was Active. Further, the outcome in test [2] and in test [3] was inactive. The EC50 in test [4] was determined as 21 µg/mL (≈ 58.9 µM).
With `Nc1c(-c2ccccc2)oc2ccccc2c1=O`, the result in test [2], in test [5] and in test [3] was inactive. Besides, the EC50 in test [4] is > 100 µg/mL.
For the compound `COc1ccc(-c2oc3cc(OC)ccc3c(=O)c2O)cc1`, the outcome in test [1], in test [5] and in test [3] was inactive.
`COc1cc2oc(-c3ccc(O)cc3)cc(=O)c2c(OC)c1OC`: the outcome in test [2], in test [5] and in test [3] was inactive. In addition, in test [4], the EC50 was determined as 19 µg/mL (≈ 57.9 µM).
For `O=c1cc(-c2cccc(F)c2)oc2ccccc12`, the outcome in test [1], in test [2] and in test [3] was inactive.
As to `O=c1cc(-c2ccccc2)oc2ccc(F)cc12`, the outcome in test [1] and in test [2] was inactive.
On to `O=C1CC(c2ccc(O)cc2)Oc2cc(O)cc(O)c21` (stereo not drawn), for which the result in test [1], in test [2], in test [5] and in test [3] was inactive.
For `C[C@@H]1O[C@@H](Oc2c(-c3cc(O)c(O)c(O)c3)oc3cc(O)cc(O)c3c2=O)[C@H](O)[C@H](O)[C@H]1O`, the result in test [1], in test [2], in test [5] and in test [3] was inactive. For the same compound, the EC50 in test [4] stood at 8.3 µg/mL (≈ 17.9 µM).
Regarding `COc1cc(-c2cc(=O)c3c(OC)c(OC)c(OC)c(OC)c3o2)cc(OC)c1OC` [HEPATAMETHOXYFLAVONE], the outcome in test [1], in test [2], in test [5] and in test [3] was inactive. The EC50 in test [4] stood at 0.5 µg/mL (≈ 1.16 µM).
In the case of `O=c1cc(-c2ccccc2)oc2cc(O)ccc12`, the result in test [1], in test [2] and in test [3] was inactive.
With `O=C1CC(c2ccccc2)Oc2ccc(Cl)cc21` (stereo not drawn), the outcome in test [2], in test [5] and in test [3] was inactive. For the same compound, in test [4], the EC50 was 1 µg/mL (≈ 3.87 µM).
As to `O=C1CC(c2ccccc2Cl)Oc2ccc(Cl)cc21` (stereo not drawn), the outcome in test [2], in test [5] and in test [3] was inactive.
In the case of `O=C1CC(c2ccc(Cl)cc2Cl)Oc2ccc(Cl)cc21` (stereo not drawn), the outcome in test [2], in test [5] and in test [3] was inactive.
As for `COc1ccc2c(=O)c(N(S(C)(=O)=O)S(C)(=O)=O)c(-c3ccccc3)oc2c1CN(C)C`, the result in test [2], in test [5] and in test [3] was inactive. Also, the EC50 in test [4] is > 100 µg/mL.
For the compound `O=C1CC(c2cccc(Cl)c2)Oc2ccccc21` (stereo not drawn), the outcome in test [2] and in test [3] was inactive. In addition, the outcome in test [5] was Active.
On to `O=C1c2ccc(O)cc2OC(c2ccc(O)c(O)c2)C1O` (stereo not drawn), for which the outcome in test [1], in test [2], in test [5] and in test [3] was inactive.
Regarding `O=C1CC(c2ccc(Cl)cc2)Oc2ccc(Cl)cc21` (stereo not drawn), the outcome in test [2], in test [5] and in test [3] was inactive.
Regarding `COc1cc2c(c(OC)c1OC)C(=O)CC(c1ccc(O)cc1)O2` (stereo not drawn), the result in test [2], in test [5] and in test [3] was inactive.
As for `COc1cc(C)cc2c1OC(c1ccccc1)CC2=O.Cl` (stereo not drawn), the result in test [2], in test [5] and in test [3] was inactive. For the same compound, the EC50 in test [4] is 26 µg/mL.
Take `O=c1cc(-c2cccc([N+](=O)[O-])c2)oc2ccccc12`: the result in test [2], in test [5] and in test [3] was inactive. In addition, in test [4], the EC50 is 2 µg/mL (≈ 7.48 µM).
Turning to `O=C1c2ccccc2OC(Cl)(c2ccccc2)C1Cl` (stereo not drawn), the result in test [2], in test [5] and in test [3] was inactive.
Consider `Cc1oc2cc(O)ccc2c(=O)c1-c1ccccc1Br`, for which the result in test [2], in test [5] and in test [3] was inactive. Also, the EC50 in test [4] amounted to 66 µg/mL (≈ 199 µM).
For the compound `COc1ccc(-c2cc(=O)c3c(OC)c(O)c(OC)cc3o2)cc1`, the result in test [2], in test [5] and in test [3] was inactive.
Regarding `COc1c(OC)c(OC)c(-c2cc(=O)c3c(OC)c(OC)c(OC)c(OC)c3o2)c(OC)c1OC`, in test [1], the result was inactive. Besides, the EC50 in test [4] was determined as 4 µg/mL (≈ 8.12 µM).
For the compound `COc1ccc(C2CC(=O)c3c(cc(OC)c(O)c3OC)O2)cc1` (stereo not drawn), the outcome in test [2], in test [5] and in test [3] was inactive.
Turning to `COc1c(OC)c(OC)c2c(=O)cc(-c3ccc(OC(C)=O)cc3)oc2c1OC`, the result in test [1], in test [2] and in test [5] was inactive. Also, the EC50 in test [4] stood at 3 µg/mL (≈ 7.49 µM).
Take `O=C1/C(=N\O)C(c2ccccc2)Oc2ccccc21` (stereo not drawn): the outcome in test [2], in test [5] and in test [3] was inactive. The EC50 in test [4] was 35 µg/mL (≈ 138 µM).
With `CC(=O)Nc1c(-c2ccccc2)oc2ccccc2c1=O`, the result in test [2], in test [5] and in test [3] was inactive. Moreover, the EC50 in test [4] is > 100 µg/mL.
For `O=C1c2ccc(O)cc2OC(c2cc(O)c(O)c(O)c2)C1O` (stereo not drawn) [DIHYDROBINETIN], the outcome in test [2], in test [5] and in test [3] was inactive. For the same compound, in test [4], the EC50 was determined as 23 µg/mL (≈ 75.6 µM).
Take `O=C1C[C@@H](c2ccccc2)Oc2cc(O)cc(O)c21`: the result in test [2], in test [5] and in test [3] was inactive.
